We go through 16 compounds from ChEMBL document CHEMBL1137872, “Potent and selective P2-P3 ketoamide inhibitors of cathepsin K with good pharmacokinetic properties via favorable P1', P1, and/or P3 substitutions” (Bioorg Med Chem Lett, 2004).

Converted amounts (≈) assume the structure as drawn.

Data set [1] deals with Procathepsin L (Homo sapiens, UniProt P07711). The experiment in a line: Inhibition of 5 uM Cbz-Phe-Arg-AMC human cathepsin L in fluorescence assay.
The target of data set [2] is Cathepsin S (Homo sapiens, UniProt P25774). The experiment in a line: Inhibition of 10 uM Cbz-Val-Val-Arg-AMC binding to human cathepsin S in fluorescence assay.
Chain of Cathepsin S (P25774 whole entry): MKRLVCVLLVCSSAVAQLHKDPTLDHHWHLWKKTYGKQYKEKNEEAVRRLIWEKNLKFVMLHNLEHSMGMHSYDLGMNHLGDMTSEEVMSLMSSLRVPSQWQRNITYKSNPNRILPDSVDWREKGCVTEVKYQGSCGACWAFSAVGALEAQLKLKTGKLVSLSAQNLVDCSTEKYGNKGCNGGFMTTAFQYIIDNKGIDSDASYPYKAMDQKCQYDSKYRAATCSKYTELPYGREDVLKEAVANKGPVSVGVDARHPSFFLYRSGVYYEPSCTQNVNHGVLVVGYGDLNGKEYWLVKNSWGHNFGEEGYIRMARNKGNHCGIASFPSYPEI
Data set [3] concerns the target Cathepsin (S and K) (Homo sapiens) (UniProt P25774+P43235). The experiment in a line: Relative binding to human cathepsins S and K. Type of data set: protein assay.
Data set [4] addresses T1, Pro-cathepsin H (Homo sapiens, UniProt P09668).
T1 sequence (P09668 whole entry): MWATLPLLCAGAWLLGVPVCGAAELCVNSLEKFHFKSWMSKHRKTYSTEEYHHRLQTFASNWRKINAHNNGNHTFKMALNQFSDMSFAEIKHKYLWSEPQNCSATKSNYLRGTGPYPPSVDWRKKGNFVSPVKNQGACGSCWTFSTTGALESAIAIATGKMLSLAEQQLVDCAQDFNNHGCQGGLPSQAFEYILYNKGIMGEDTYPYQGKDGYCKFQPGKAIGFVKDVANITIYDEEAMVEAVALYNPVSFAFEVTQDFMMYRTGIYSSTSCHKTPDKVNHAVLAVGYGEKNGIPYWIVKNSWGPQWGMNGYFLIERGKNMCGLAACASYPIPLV
The experiment in a line: Inhibition of 50 uM L-Arg-beta-naphthalamide binding to human cathepsin H in fluorescence assay.

The target in data set [5] is Cathepsin B (Homo sapiens, UniProt P07858). The experiment in a line: Inhibition of 10 uM Cbz-Phe-Arg-AMC binding to human cathepsin B in fluorescence assay.
The target of data set [6] is T2, Cathepsin K (Homo sapiens, UniProt P43235).
T2 sequence (P43235 whole entry): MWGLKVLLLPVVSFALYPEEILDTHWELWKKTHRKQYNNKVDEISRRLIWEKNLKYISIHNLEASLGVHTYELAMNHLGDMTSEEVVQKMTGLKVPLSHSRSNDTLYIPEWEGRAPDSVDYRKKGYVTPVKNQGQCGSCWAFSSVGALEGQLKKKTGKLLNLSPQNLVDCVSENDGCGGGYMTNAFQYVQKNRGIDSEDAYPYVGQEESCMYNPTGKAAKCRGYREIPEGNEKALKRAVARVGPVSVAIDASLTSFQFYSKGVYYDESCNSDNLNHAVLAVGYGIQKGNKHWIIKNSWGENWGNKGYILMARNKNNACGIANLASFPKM
The experiment in a line: Inhibition of 10 uM Cbz-Phe-Arg-AMC binding to human cathepsin K in fluorescence assay.

Data set [7] has as its target T3, Cathepsin (L and K) (Homo sapiens) (UniProt P43235+P07711). The experiment in a line: (§1) Relative binding to human cathepsins L and K. In kind it is protein assay.
In data set [8] the target is Cathepsin (H and K) (Homo sapiens) (UniProt P09668+P43235). The experiment in a line: Relative binding affinity for human cathepsins H and K. In kind it is protein assay.
For data set [9], the target named is T3, Cathepsin (L and K) (Homo sapiens). The data set is described as §1. In kind it is protein assay. This is another data set of the same source.
Data set [10] can be described thus: Equilibrium solubility in fasted state-simulated intestinal fluid was determined […]. In kind it is ADME, Rattus norvegicus. The note with it: read-out: FS-SIF.
The target of data set [11] is T4, Pro-cathepsin H (Homo sapiens) (UniProt P09668).
T4 sequence (whole entry): T1 sequence (P09668 whole entry)
The experiment in a line: Relative binding to human cathepsins H and K.

Data set [12] can be described thus: Terminal half-life was determined in rats upon intravenous administration as a solution in 30% hydroxypropyl-beta-cyclodextrin, pH = 5.1. In kind it is ADME, organism-based. Particulars: rat, in vivo.
A short description of data set [13]: Total clearance in rats. The note with it: rat, in vivo. Type of data set: ADME, organism-based.
A short description of data set [14]: Apparent permeability coefficient for apical to basolateral flux was determined by Madin-Darby canine kidney cell monolayer transport assay. In kind it is ADME, cell-based, Canis lupus familiaris. Particulars: dog, MDCK.
A short description of data set [15]: Oral bioavailability in rat. Type of data set: ADME, organism-based. The note with it: in vivo.
The nature of data set [16]: Steady state volume of distribution in rats. Particulars: rat, in vivo; read-out: Vss. In kind it is ADME, organism-based.
A short description of data set [17]: Terminal half-life was determined in rats upon intravenous administration as a solution in 30% hydroxypropyl-beta-cyclodextrin, pH = 3.5. Type of data set: ADME, organism-based. Particulars: rat, in vivo.
Data set [18] is described as follows: Terminal half-life was determined in rats upon intravenous administration as a solution in 40% hydroxypropyl-beta-cyclodextrin, pH = 5.1. The note with it: rat, in vivo. Type of data set: ADME, organism-based.

T3 sequence (P07711 whole entry, looked up, one chain of several): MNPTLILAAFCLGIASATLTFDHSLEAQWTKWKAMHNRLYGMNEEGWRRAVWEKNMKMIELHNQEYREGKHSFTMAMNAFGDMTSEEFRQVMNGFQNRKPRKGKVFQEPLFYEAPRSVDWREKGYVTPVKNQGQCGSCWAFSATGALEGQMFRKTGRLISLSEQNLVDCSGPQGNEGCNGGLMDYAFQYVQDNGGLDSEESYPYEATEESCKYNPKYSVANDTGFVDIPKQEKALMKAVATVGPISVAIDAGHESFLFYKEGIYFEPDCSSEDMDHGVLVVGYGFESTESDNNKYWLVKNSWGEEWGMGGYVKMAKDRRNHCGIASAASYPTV
Chain of Procathepsin L (P07711 whole entry): as the sequence (P07711 whole entry, looked up, one chain of several) above

With `CCCC[C@H](NC(=O)OCC1(CCc2ccccc2)CCC1)C(=O)C(=O)N[C@H](C)c1ccccc1`, the half-inhibitory concentration (IC50) was 1.6 µM in data set [1]; 0.034 µM in data set [2]; above 2 µM in data set [4]; above 2 µM in data set [5]; 0.024 µM in [6]. Further, the Ratio was 1.4 in data set [3], 67 in data set [7] and above 83 in [8].

As to `CCCC[C@H](NC(=O)OC1(Cc2ccccc2)CCCCC1)C(=O)C(=O)N[C@H](C)c1ccccc1`, the IC50 in data set [6] came to 0.21 µM.

For the compound `CCCC[C@H](NC(=O)OC(C)(C)Cc1ccccc1)C(=O)C(=O)N[C@H](C)c1ccccc1`, in data set [6], the IC50 came out at 0.63 µM.

Regarding `CCCC[C@H](NC(=O)OCC1(Cc2ccc(F)cc2)CCC1)C(=O)C(=O)Nc1ccn[nH]1`, the half-inhibitory concentration (IC50) in data set [1] was 0.33 µM; in data set [2] it was 0.0052 µM; in data set [4], above 0.5 µM; in data set [5] it was above 0.5 µM; in [6], 0.00083 µM. The Ratio in data set [9] was 390; in [3] it was 6.3; in [11], above 600; in [7], above 600. Moreover, the solubility thermodynamic in [10] was 150 µg/mL (≈ 337 µM). Besides, the half-life in [12] was found to be 2 h. The same compound displayed a clearance in [13] of 45 mL/min/kg. In data set [14], the Papp A→B came out at 15 ×10⁻⁶ cm/s. For the same compound, in data set [15], the bioavailability was 31%.

With `CCCC[C@H](NC(=O)OC1(Cc2ccccc2)CCCC1)C(=O)C(=O)N[C@H](C)c1ccccc1`, the 50% inhibitory concentration (IC50) in [1] was 3 µM; in [2] it was 0.43 µM; in data set [4] it was above 12 µM; in [5] it was above 12 µM; in data set [6] it was 0.025 µM. The Ratio in data set [3] is 17; in data set [7] it was 120; in [8] it was above 480.

Turning to `CCCC[C@H](NC(=O)OCC1(CCCc2ccccc2)CCC1)C(=O)C(=O)N[C@H](C)c1ccccc1`, the half-inhibitory concentration (IC50) in data set [1] was 1.3 µM; in data set [2], 0.017 µM; in [4], above 2 µM; in data set [5], above 2 µM; in data set [6], 0.017 µM. In addition, the Ratio in data set [9] was 76; in data set [3], 1; in [11], above 120; in data set [7], above 120.

`CNC(=O)NCCCC[C@H](NC(=O)OCC1(Cc2c(F)cccc2F)CCC1)C(=O)C(=O)N[C@H](C)c1ccccc1`: the solubility thermodynamic in data set [10] was 20 µg/mL (≈ 34.9 µM). The same compound returned a half-life in [12] of 1.57 h. In addition, the Vd in [16] came to 1.6 L/kg. In addition, in data set [6], the half-maximal inhibitory concentration (IC50) amounted to 0.024 µM. This compound also had a clearance in [13] of 33 mL/min/kg. For the same compound, the apparent permeability from apical to basolateral (Papp A→B) in [14] was 14 ×10⁻⁶ cm/s. In [15], the bioavailability was determined as 15%.

On to `CCCC[C@H](NC(=O)OCC(C)(C)Cc1ccccc1)C(=O)C(=O)N[C@H](C)c1ccccc1`, for which the IC50 in data set [1] was 1.2 µM; in data set [2], 0.02 µM; in data set [4], above 5 µM; in [5] it was above 5 µM; in data set [6], 0.013 µM. The Ratio in data set [3] is 1.5; in data set [11], above 380; in [7], 92; in [8], above 380.

With `CCCC[C@H](NC(=O)OCC1(Cc2ccccc2)CCC1)C(=O)C(=O)N[C@H](C)c1ccccc1`, the IC50 was 1.3 µM in [1]; 0.02 µM in data set [2]; above 5 µM in data set [4]; 3.6 µM in data set [5]; 0.0085 µM in data set [6]. Besides, the Ratio in data set [3] is 2.4; in data set [11], above 580; in [7], 150; in data set [8], above 580.

As to `CCCC[C@H](NC(=O)OCC(C)(C)c1ccccc1)C(=O)C(=O)N[C@H](C)c1ccccc1`, the 50% inhibitory concentration (IC50) in data set [1] is 3 µM; in [2], 0.27 µM; in data set [4], above 5 µM; in data set [5] it was 5 µM; in [6] it was 0.065 µM. Further, the Ratio in [3] is 4.2; in [7], 46; in [8] it was above 77.

As to `CN(C)S(=O)(=O)NCCCC[C@H](NC(=O)OCC1(Cc2ccc(F)cc2)CCC1)C(=O)C(=O)NCc1cccnc1`, the half-maximal inhibitory concentration (IC50) is above 5 µM in [1]; 0.13 µM in data set [2]; above 5 µM in data set [4]; above 5 µM in data set [5]; 0.04 µM in data set [6]. Further, the Ratio in [9] is above 120; in data set [3] it was 3.2; in data set [11] it was above 120; in data set [7], above 120. Besides, in data set [10], the solubility thermodynamic was 30 µg/mL (≈ 50.7 µM). The Vd in [16] worked out at 0.42 L/kg. The compound further came in with a half-life in [17] of 4.5 h. For the same compound, the clearance in data set [13] turned out to be 9.6 mL/min/kg. Further, the Papp A→B in [14] worked out at 6.9 ×10⁻⁶ cm/s. The same compound had a bioavailability in data set [15] of 18%.

With `CCCC[C@H](NC(=O)OCC1(Cc2ccccc2)CCCC1)C(=O)C(=O)N[C@H](C)c1ccccc1`, the concentration for half-maximal inhibition (IC50) was 2.2 µM in data set [1]; 0.011 µM in data set [2]; above 5 µM in [4]; above 5 µM in data set [5]; 0.026 µM in data set [6]. In addition, the Ratio in data set [3] is 0.4; in data set [11] it was above 190; in data set [7], 85; in data set [8], above 190.

As to `C[C@@H](NC(=O)C(=O)[C@H](CCCCNC(=O)N1CCOCC1)NC(=O)OCC1(Cc2ccc(F)cc2)CCC1)c1ccccc1`, the IC50 in data set [1] was 0.68 µM; in data set [2] it was 0.027 µM; in data set [4], above 5 µM; in data set [5], above 5 µM; in data set [6], 0.013 µM. For the same compound, the solubility thermodynamic in data set [10] was 90 µg/mL (≈ 147 µM). Also, in [3], the Ratio is 2.1. Besides, in data set [18], the half-life came to 1.83 h. In addition, the Vd in data set [16] turned out to be 4.2 L/kg. For the same compound, the clearance in [13] was 43 mL/min/kg. Moreover, the Papp A→B in data set [14] was found to be 47 ×10⁻⁶ cm/s. In data set [15], this compound came in with a bioavailability of 38%.

In turn, `CCCC[C@H](NC(=O)OC(CC)(CC)Cc1ccccc1)C(=O)C(=O)N[C@H](C)c1ccccc1` came in with an IC50 in [6] of 0.15 µM.

In the case of `CCCC[C@H](NC(=O)OC1(Cc2ccccc2)CCC1)C(=O)C(=O)N[C@H](C)c1ccccc1`, the IC50 in data set [6] was 0.71 µM. Against the preceding compound, the IC50 is about 4.7-fold higher.

Turning to `C[C@@H](NC(=O)C(=O)[C@H](CCCCNC(=O)N1CCOCC1)NC(=O)OCC1(Cc2ccncc2)CCC1)c1ccccc1`, the solubility thermodynamic in data set [10] was 300 µg/mL (≈ 505 µM). Also, the half-life in data set [18] worked out at 1.23 h. In addition, in data set [16], the Vd was 0.66 L/kg. This compound also had a half-maximal inhibitory concentration (IC50) in data set [6] of 0.0076 µM. In data set [13], this compound registered a clearance of 27 mL/min/kg. In addition, the Papp A→B in data set [14] was 1.4 ×10⁻⁶ cm/s. The same compound had a bioavailability in [15] of 8.1%.
